Test results: patent publication US20250051355A1, “COMPOUNDS, COMPOSITIONS, AND METHODS” (ACONCAGUA BIO, INC., priority 2023, published 2025)

What was measured:
[1] = target: human calcitonin receptor (CTR) and RAMP3 (AMY3) (Homo sapiens, UniProt O60896+P30988); assay: Amylin Receptor cAMP Assay II; type: cell-based; details: COS-7/AMY3 cells, cAMP dynamic 2 kit, read-out: Amylin Receptor cAMP Stimulation Activity: EC50
Description: Amylin Receptor cAMPAssay II
AMYRs are heterodimers of the class B calcitonin (CT) G-protein-coupled receptor (CTR) and receptor activity-modifying proteins (RAMPs). All three RAMPs can interact with the CTR and form AMY1, AMY2, AMY3 with RAMP1, RAMP2 and RAMP3, respectively. Like other class B1 GPCRs, the CT receptor family is canonically coupled to Gs-mediated cAMP production, and measurement of cAMP accumulation has been the primary assay used to determine peptide selectivity and potency.
(§1) To optimize functional activity directed toward Gas coupling, COS-7 cells were stably transfected with human calcitonin receptor (CTR) and RAMP3, simultaneously. 100×concentration of compound working solutions were prepared with 4-fold serial dilution in 384-well Echo LDV plate (Labcyte, Cat #LP-0200-BC). 200 nL/well 100×concentration of compound working solutions were moved to 384-well white microplate (Perkin Elmer, Cat #6007680) using Labcyte ECHO550. […] cells/mL COS-7/AMY3 cell suspensions prepared with assay buffer [HBSS containing 20 mM HEPES (Gibco, Cat #15630-080), 0.5 mM IBMX (Sigma, Cat #15879) and 0.1% Casein (Sigma, Cat #C4765)], 20 μL cell suspensions were added to each well of previous generated assay plate which already contains 200 nL compound at 100×concentration using ThermoFisher Multidrop Combi (2000 cells/well). Seal the plate and incubate at 37° C. with 5% CO2 for 30 min.
(§2) After incubation, the cAMP assay signal was generated using cAMP dynamic 2 kit (Revvity, Cat #62AM4PEC). 10 μL cAMP-d2 working solution was added to each well, followed by 10 μL Anti-cAMP antibody-cryptate working solution which was added to each well using CERTUS FLEX LIQUID DISPENSER The samples were then incubated at room temperature for 1 hour protected from light. the fluorescence was read at 665 and 615 nm with Reader PerkinElmer EnVision 2105.

[2] = target: T1, human calcitonin receptor (CTR) (Homo sapiens, UniProt P30988); assay: Calcitonin receptor (CTR) cAMP Assay; type: cell-based; details: COS7-human CTR Clone #2 cells, cAMP dynamic 2 kit; read-out: Calcitonin Receptor cAMP Stimulation Activity: EC50
T1 construct: expressed in transfected cells; host or cells: COS-7 (COS7-human CTR Clone #2)
T1 sequence (P30988 25-474): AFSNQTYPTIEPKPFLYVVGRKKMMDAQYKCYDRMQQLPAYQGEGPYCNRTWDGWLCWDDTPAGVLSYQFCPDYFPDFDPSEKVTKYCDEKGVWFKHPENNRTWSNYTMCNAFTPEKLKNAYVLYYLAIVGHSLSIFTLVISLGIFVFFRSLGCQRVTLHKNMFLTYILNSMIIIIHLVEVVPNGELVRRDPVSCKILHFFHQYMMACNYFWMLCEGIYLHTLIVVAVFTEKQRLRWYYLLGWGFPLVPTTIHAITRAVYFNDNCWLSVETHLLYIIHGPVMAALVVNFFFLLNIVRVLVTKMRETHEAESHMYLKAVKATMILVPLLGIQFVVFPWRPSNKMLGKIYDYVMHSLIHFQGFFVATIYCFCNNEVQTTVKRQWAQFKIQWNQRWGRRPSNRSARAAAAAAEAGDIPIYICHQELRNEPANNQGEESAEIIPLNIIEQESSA
Description: Calcitonin receptor (CTR) cAMPAssay
The calcitonin receptor (CTR) belongs to the subfamily of GPCRs known as the secretin or ‘B’ family of GPCRs. Like other class B1 GPCRs, the CT receptor family is canonically coupled to Gs-mediated cAMP production, and measurement of cAMP accumulation has been the primary assay used to determine peptide selectivity and potency.
as §1, with “to create COS7-human CTR Clone #2 stable cell line. 100× concentration” for “and RAMP3, simultaneously. 100×concentration”, “COS7-human CTR Clone #2” for “COS-7/AMY3”
as §2, with “#62AM4PEC). […] cAMP-d2 working” for “#62AM4PEC). 10 μL cAMP-d2 working”

Sequence of human calcitonin receptor (CTR) and RAMP3 (AMY3) (O60896 24-148, one chain of several): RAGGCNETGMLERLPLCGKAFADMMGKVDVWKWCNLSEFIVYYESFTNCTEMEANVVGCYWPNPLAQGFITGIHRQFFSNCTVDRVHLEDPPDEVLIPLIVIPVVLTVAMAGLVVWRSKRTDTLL

Row | EC50 [1] [nM] | EC50 [2] [nM] | Compound
1 | 309 | 34.9 | Cc1nnc(-c2c(CCC3CC(C)OC(C)C3)nc3c(c2-c2cc4ccnc(N[C@@H]5CCc6ncccc65)c4s2)S(=O)(=O)CC3C(C)C)o1 (stereo partly drawn) [Compound 136, N—(R)-4-aza-1-indanyl(2-(5-[2-(2,6-dimethyltetrahydro-2H-pyran-4-yl)ethyl]-3-isopropyl-6-(5-methyl-1,3,4-oxadiazol-2-yl)-1,1-dioxo-1λ^6-thia-4-aza-7-indanyl}-1-thia-6-aza-7-indenyl)amine]
2 | 180 | 17.2 | Cc1nnc(-c2c(CCC34CCC(CC3)OC4)nc3c(c2-c2cc4ccnc(N[C@@H]5CCc6ncccc65)c4s2)c(=O)n2n3CCC2)o1 [Compound 147, 6-((2S)-2-methyl-10-(2-methyl-4-pyridyl)-7-oxo-11-[2-(tetrahydro-2H-pyran-4-yl)ethyl]-6,12-diazatricyclo[6.4.0.0,^1I]dodeca-1(12),8,10-trien-9-yl}-3-[(5-chloro-3-fluoro-2-pyridyl)methyl]-1,3-benzoxazol-2(3H)-one]
3 | 1540 | 120 | Cc1nnc(-c2c(CCC3CCOCC3)nc3c(c2-c2cnc4c(ccn4Cc4ccc(C#N)cn4)c2)S(=O)(=O)CC3C(C)C)o1 (stereo not shown) [Compound 128, 6-[(5-(3-isopropyl-6-(5-methyl-1,3,4-oxadiazol-2-yl)-1,1-dioxo-5-[2-(tetrahydro-2H-pyran-4-yl)ethyl]-1-thia-4-aza-7-indanyl}-1H-1,7-diazainden-1-yl)methyl]nicotinonitrile]
4 | > 100 | 6580 | Cc1nnc(-c2c(CCC3CCOCC3)nc3c(c2C2CCN(C(=O)Cc4ccc(F)c(F)c4)C2)S(=O)(=O)CC3C(C)C)o1 (stereo not shown) [Compound 107, 7-{1-[2-(3,4-difluorophenyl)acetyl]-3-pyrrolidinyl}-3-isopropyl-6-(5-methyl-1,3,4-oxadiazol-2-yl)-5-[2-(tetrahydro-2H-pyran-4-yl)ethyl]-1D′-thia-4-aza-1,1-indandione]
5 | 13 | 0.676 | COc1cccc2c1CC[C@H]2Nc1nccc2cc(-c3c4c(nc(CCc5ccc(F)cc5)c3-c3nnc[nH]3)[C@@H]3CCCN3C4=O)sc12 [Compound 85, (S)-2-(4-fluorophenethyl)-4-(7-(((R)-4-methoxy-2,3-dihydro-1H-inden-1-yl)amino)thieno[2,3-c]pyridin-2-yl)-3-(4H-1,2,4-triazol-3-yl)-7,8,9,9a-tetrahydro-5H-pyrido[2,3-a]pyrrolizin-5-one]
6 | 272 | 49.2 | COc1noc(-c2c(CCC3CCOCC3)nc3c(c2-c2cc4ccnc(N[C@@H]5CCc6ncccc65)c4s2)S(=O)(=O)CC3C(C)C)n1 (stereo partly drawn) [Compound 121, N—(R)-4-aza-1-indanyl(2-(3-isopropyl-6-(3-methoxy-1,2,4-oxadiazol-5-yl)-1,1-dioxo-5-[2-(tetrahydro-2H-pyran-4-yl)ethyl]-1λ^6-thia-4-aza-7-indanyl}-1-thia-6-aza-7-indenyl)amine]
7 | 58.4 | 4.06 | COc1ccnc(-c2c(CCC3CCOCC3)nc3c(c2-c2cc4ccnc(N[C@@H]5CCc6ncccc65)c4s2)S(=O)(=O)CC3C(C)C)n1 (stereo partly drawn) [Compound 146, N—(R)-4-aza-1-indanyl(2-(3-isopropyl-6-(4-methoxy-2-pyrimidinyl)-1,1-dioxo-5-[2-(tetrahydro-2H-pyran-4-yl)ethyl]-1λ^6-thia-4-aza-7-indanyl}-1-thia-6-aza-7-indenyl)amine]
8 | 91.6 | 7.4 | COc1cccc2c1CC[C@H]2Nc1nccc2cc(-c3c(-c4nnc(C)o4)c(CCC4CCOCC4)nc4c3S(=O)(=O)N3CCC[C@@H]43)sc12 [Compound 84, [(R)-4-methoxy-1-indanyl](2-((2S)-10-(5-methyl-1,3,4-oxadiazol-2-yl)-7,7-dioxo-11-[2-(tetrahydro-2H-pyran-4-yl)ethyl]-7λ^6-thia-6,12-diazatricyclo[6.4.0.0^2,6]dodeca-1(12),8,10-trien-9-yl}-1-thia-6-aza-7-indenyl)amine]
9 | 2310 | 186 | Cc1nnc(-c2c(CCC3CCOCC3)nc3c(c2-c2ccc4nn(Cc5ccc(C#N)c(F)c5)cc4c2)C(=O)N2CCOC[C@@H]32)o1 [Compound 130, 4-[(5-((4aR,9aR)-7-(5-methyl-1,3,4-oxadiazol-2-yl)-9-oxo-6-[2-(tetrahydro-2H-pyran-4-yl)ethyl]-1,2,4,4a-tetrahydro-9H-3-oxa-5,9a-diazafluoren-8-yl}-2H-indazol-2-yl)methyl]-2-fluorobenzonitrile]
10 | 499 | 45.2 | Cc1cc(-c2c(CCC3CCOCC3)nc3c(c2-c2cc4ccnc(N[C@@H]5CCc6ncccc65)c4s2)S(=O)(=O)CC3C(C)C)ccn1 (stereo partly drawn) [Compound 91, 7-(7-(((R)-6,7-dihydro-5H-cyclopenta[b]pyridin-5-yl)amino)thieno[2,3-c]pyridin-2-yl)-3-isopropyl-6-(2-methylpyridin-4-yl)-5-(2-(tetrahydro-2H-pyran-4-yl)ethyl)-2,3-dihydrothieno[3,2-b]pyridine 1,1-dioxide]
11 | 352 | 39.2 | Cc1nnc(-c2c(CCC3CC(C)OC(C)C3)nc3c(c2-c2cc4ncnc(N[C@@H]5CCc6ncccc65)c4s2)S(=O)(=O)CC3C(C)C)o1 (stereo partly drawn) [Compound 98, N—(R)-4-aza-1-indanyl(2-(5-[2-(2,6-dimethyltetrahydro-2H-pyran-4-yl)ethyl]-3-isopropyl-6-(5-methyl-1,3,4-oxadiazol-2-yl)-1,1-dioxo-1λ^8-thia-4-aza-7-indanyl}-1-thia-4,6-diaza-7-indenyl)amine]
12 | 1970 | 276 | Cc1nnc(-c2c(CCC3CCOCC3)nc3c(c2-c2cc4ccnc(Nc5ccc(F)c(F)c5)c4s2)S(=O)(=O)CC3C(C)C)o1 (stereo not shown) [Compound 137]
13 | 1900 | 208 | Cc1nnc(-c2c(CCC3CCOC3)nc3c(c2-c2cc4ncnc(N[C@@H]5CCc6ncccc65)c4s2)S(=O)(=O)CC3C(C)C)o1 (stereo partly drawn) [Compound 99, N—(R)-4-aza-1-indanyl(2-(3-isopropyl-6-(5-methyl-1,3,4-oxadiazol-2-yl)-1,1-dioxo-5-[2-(tetrahydro-3-furyl)ethyl]-1λ^6-thia-4-aza-7-indanyl}-1-thia-4,6-diaza-7-indenyl)amine]
14 | 306 | 25 | Cc1nnc(-c2c(CCC3CCOCC3)nc3c(c2-c2cc4ccnc(N[C@@H]5CCc6ncccc65)c4s2)C(=O)N2CCC[C@@H]32)o1 [Compound 64, (S)-4-(7-(((R)-6,7-dihydro-5H-cyclopenta[b]pyridin-5-yl)amino)thieno[2,3-c]pyridin-2-yl)-3-(5-methyl-1,3,4-oxadiazol-2-yl)-2-(2-(tetrahydro-2H-pyran-4-yl)ethyl)-7,8,9,9a-tetrahydro-5H-pyrido[2,3-a]pyrrolizin-5-one]
